Assay results published in the NIST ThermoML archive (doi:10.1016/j.jct.2012.04.029).
Numbers after ± are expanded uncertainties.

Conditions: Liquid, Ebulliometric method (Recirculating still)

COCCO [2-methoxyethan-1-ol]
vapor or sublimation pressure (346.4 K): 15 ± 0.3 kPa | vapor or sublimation pressure (356.9 K): 23.5 ± 0.4 kPa | vapor or sublimation pressure (364.7 K): 32 ± 0.4 kPa | vapor or sublimation pressure (376 K): 49 ± 0.4 kPa | vapor or sublimation pressure (380.6 K): 57.5 ± 0.5 kPa | vapor or sublimation pressure (384.5 K): 66 ± 0.5 kPa | vapor or sublimation pressure (388.1 K): 74.5 ± 0.6 kPa | vapor or sublimation pressure (391.3 K): 83 ± 0.6 kPa | vapor or sublimation pressure (394.4 K): 91.5 ± 0.7 kPa | vapor or sublimation pressure (397.2 K): 100 ± 0.7 kPa | vapor or sublimation pressure (400.1 K): 108.5 ± 0.7 kPa | vapor or sublimation pressure (402.6 K): 117 ± 0.8 kPa | vapor or sublimation pressure (404.9 K): 125.5 ± 0.8 kPa | vapor or sublimation pressure (407 K): 134 ± 0.9 kPa | vapor or sublimation pressure (409.1 K): 142.5 ± 0.9 kPa | vapor or sublimation pressure (411.1 K): 151 ± 0.9 kPa | vapor or sublimation pressure (412.9 K): 159.5 ± 1 kPa | vapor or sublimation pressure (414.7 K): 168 ± 1 kPa | vapor or sublimation pressure (416.6 K): 176.5 ± 0.9 kPa

COCC(C)O (stereo not drawn) [1-methoxy-2-propanol]
vapor or sublimation pressure (342.3 K): 15 ± 0.3 kPa | vapor or sublimation pressure (352.5 K): 23.5 ± 0.4 kPa | vapor or sublimation pressure (360.1 K): 32 ± 0.4 kPa | vapor or sublimation pressure (367.4 K): 42.1 ± 0.4 kPa | vapor or sublimation pressure (371.6 K): 49.1 ± 0.5 kPa | vapor or sublimation pressure (376 K): 57.6 ± 0.5 kPa | vapor or sublimation pressure (380 K): 66.1 ± 0.5 kPa | vapor or sublimation pressure (383.5 K): 74.6 ± 0.6 kPa | vapor or sublimation pressure (386.9 K): 83.3 ± 0.6 kPa | vapor or sublimation pressure (390.1 K): 92.6 ± 0.6 kPa | vapor or sublimation pressure (392.8 K): 99.9 ± 0.7 kPa | vapor or sublimation pressure (397.9 K): 116.9 ± 0.8 kPa | vapor or sublimation pressure (400 K): 125.5 ± 0.9 kPa | vapor or sublimation pressure (402.2 K): 134 ± 0.9 kPa | vapor or sublimation pressure (404.3 K): 142.5 ± 0.9 kPa | vapor or sublimation pressure (406.3 K): 151 ± 0.9 kPa | vapor or sublimation pressure (408.2 K): 159.5 ± 1 kPa | vapor or sublimation pressure (410 K): 168 ± 1 kPa | vapor or sublimation pressure (411.8 K): 176.5 ± 1 kPa
